PMC8845285, “Serotoninergic receptor ligands improve Tamoxifen effectiveness on breast cancer cells” (BMC Cancer, 2022)
Like-named read-outs stand apart in the source and are kept apart here.

Columns and labels:
[1] = target: T1, serotonin 5-HT1A receptor (Rattus norvegicus, UniProt P19327); test: radioligand binding assay, 5-HT1A, [3H]-8-OH-DPAT; conditions: rat brain cortex; read-out: Ki ± SD, 5-HT1A [3H]8OH-DPAT
T1 construct: serotonin 5-HT1A receptor, [^3H]-8-OH-DPAT, rat brain cortex; from tissue; host or cells: rat brain cortex
T1 sequence (P19327 1-422): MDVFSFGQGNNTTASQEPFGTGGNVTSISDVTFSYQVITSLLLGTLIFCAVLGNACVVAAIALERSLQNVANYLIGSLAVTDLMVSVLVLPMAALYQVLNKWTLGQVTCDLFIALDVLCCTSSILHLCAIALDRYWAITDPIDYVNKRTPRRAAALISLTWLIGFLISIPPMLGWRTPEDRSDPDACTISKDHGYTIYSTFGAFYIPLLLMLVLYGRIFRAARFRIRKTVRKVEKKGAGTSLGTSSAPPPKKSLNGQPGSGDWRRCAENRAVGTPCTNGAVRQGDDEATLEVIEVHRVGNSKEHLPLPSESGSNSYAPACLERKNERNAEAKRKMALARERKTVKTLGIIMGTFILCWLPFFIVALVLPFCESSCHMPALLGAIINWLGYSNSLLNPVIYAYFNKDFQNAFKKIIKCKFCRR
Method: (§1) All reactions were monitored by TLC, carried out on Merck 60G F254 plates with fluorescent indicator and the plates were visualized with UV light (254 nm). Each final compound and intermediate was purified by silica gel column chromatography (Macherey-Nagel 60 0,063–0,2 mm/70–230 mesh). […] Unless otherwise stated, all spectra were recorded in CDCl3. Chemical shifts are reported in ppm using Me4Si as internal standard. The following abbreviations are used to describe peak patterns when appropriate: s (singlet), d (doublet), t (triplet), m (multiplet), q (quartet), qt (quintet), dd (double doublet), ddd (double dd), bs (broad singlet). Mass spectra of the final products were performed on LTQ Orbitrap XL™ Fourier transform mass spectrometer (FTMS) equipped with ESI ION MAX™ source (Thermo Fisher, San José, USA). Melting points were determined using a Buchi B-540 hot-stage instrument and are uncorrected. […] All the compounds were dissolved in 5% DMSO. The following specific radioligands and tissue sources were used: (a)serotonin 5-HT1A receptor, [^3H]-8-OH-DPAT, rat brain cortex; (b) serotonin 5-HT2A receptor, [^3H]ketanserin, rat brain cortex; (c)serotonin 5-HT2C receptor, [^3H]mesulergine, rat brain cortex. Non-specific binding was determined as described in the experimental section, and specific binding as the difference between total and non-specific binding. […] The IC50 values obtained were used to calculate apparent inhibition constants (Ki) by the method of Cheng and Prussoff, from the following equation: Ki = IC50/(1 + S/KD) where S represents the concentration of the hot ligand used and KD its receptor dissociation constant (KD values, obtained by Scatchard analysis, were calculated for each labeled ligand). Radioligand binding assays for 5-HT1A were performed following a published procedure. 5-HT2A and 5-HT2C binding assays were performed reported by Herndon et al..

[2] = target: T2, serotonin 5-HT2A receptor (Rattus norvegicus, UniProt P14842); test: radioligand binding assay, 5-HT2A, [3H]ketanserin; conditions: rat brain cortex; read-out: Ki ± SD, 5-HT2A [3H]Ketanserin
T2 construct: serotonin 5-HT2A receptor, [^3H]ketanserin, rat brain cortex; from tissue; host or cells: rat brain cortex
T2 sequence (P14842 whole entry): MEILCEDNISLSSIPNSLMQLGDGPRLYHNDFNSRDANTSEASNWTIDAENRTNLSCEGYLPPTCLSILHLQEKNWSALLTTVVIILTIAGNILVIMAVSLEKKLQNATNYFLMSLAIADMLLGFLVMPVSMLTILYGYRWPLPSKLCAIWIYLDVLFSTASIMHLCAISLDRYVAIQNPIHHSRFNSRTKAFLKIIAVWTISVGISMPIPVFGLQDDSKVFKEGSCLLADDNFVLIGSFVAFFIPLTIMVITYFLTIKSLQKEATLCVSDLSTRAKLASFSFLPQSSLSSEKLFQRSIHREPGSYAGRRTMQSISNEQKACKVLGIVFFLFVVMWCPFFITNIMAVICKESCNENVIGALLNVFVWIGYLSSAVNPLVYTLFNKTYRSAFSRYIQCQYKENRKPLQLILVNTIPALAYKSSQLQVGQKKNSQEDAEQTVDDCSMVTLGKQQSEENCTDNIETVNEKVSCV
Method: as §1

[3] = target: T3, serotonin 5-HT2C receptor (Rattus norvegicus, UniProt P08909); test: radioligand binding assay, 5-HT2C, [3H]mesulergine; conditions: read-out: Ki ± SD, 5-HT2C [3H]Mesulergine
T3 construct: serotonin 5-HT2C receptor, [^3H]mesulergine, rat brain cortex; from tissue; host or cells: rat brain cortex
T3 sequence (P08909 33-460): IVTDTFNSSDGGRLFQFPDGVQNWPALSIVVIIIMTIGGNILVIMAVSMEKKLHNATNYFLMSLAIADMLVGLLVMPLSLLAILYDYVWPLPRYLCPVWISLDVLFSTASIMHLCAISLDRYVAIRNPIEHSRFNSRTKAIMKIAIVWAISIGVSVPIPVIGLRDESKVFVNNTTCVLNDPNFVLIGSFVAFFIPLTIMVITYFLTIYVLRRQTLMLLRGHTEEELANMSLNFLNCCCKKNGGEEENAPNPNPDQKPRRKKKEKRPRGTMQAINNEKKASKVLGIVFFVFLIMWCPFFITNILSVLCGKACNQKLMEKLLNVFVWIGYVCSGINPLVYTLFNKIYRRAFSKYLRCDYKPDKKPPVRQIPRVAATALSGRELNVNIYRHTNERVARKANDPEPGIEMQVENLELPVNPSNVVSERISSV
Method: as §1

MCF7 cells = test: MCF7 cell viability, sulforhodamine B assay; type: cell-based, human; conditions: for IC50: Homo sapiens, MCF7
Method: (§2) MCF7 (ER^+, PR^+, HER2^−), SKBR3 (ER^−, PR^+, HER2^+) and MDA-MB231 (ER^−, PR^−, HER2^−) human BC cells and MCF10A non-cancer breast epithelial cells were available in our laboratory. MCF7, SKBR3 and MDA-MB231 cells were cultured in DMEM, supplemented with 10% FBS, 2 mM glutamine, 100 units/ml penicillin and 100 units/ml streptomycin. MCF10A cells were cultured in MEBM, supplemented with 0.4% BPE, 0.1% hEGF, 0.1%, Insulin, 0.1% Hydrocortisone and 0.1% GA-1000. […] Treatment with SER were carried out in culture conditions. Treatment with Tamoxifen and/or SER were carried out upon 48 h estrogen starvation in phenol-red free medium supplemented with 10% Charcoal Stripped (C/S) FBS, 2 mM glutamine, 100 units/ml penicillin and 100 units/ml streptomycin.
(§3) Cells were fixed with 50% trichloroacetic acid for at least 2 h at 4 °C, washed with distilled and de-ionized water, air-dryed and stained 30 min with 0.4% sulforhodamine B in 1% acetic acid. Unbound dye was removed and 10 mM tris-HCl solution (pH 7.5) was added to dissolve the protein-bound dye. Cell survival was assessed by optical density determination at 510 nm using a microplate reader.
After 48 and 72 h, cell viability was assessed by sulforhodamine B assay (see Methods).

SKBR3 cells = test: SKBR3 cell viability, sulforhodamine B assay; type: cell-based, human; conditions: for IC50: Homo sapiens, SK-BR-3, 72 h treatment
Method: as §2, §3
Fig. 3 Effect of SER on SKBR3 cell viability. […] Cell viability was assessed, after 72 h, by sulforhodamine B assay (see Methods).

MDA-MB231 cells = test: MDA-MB231 cell viability, sulforhodamine B assay; type: cell-based, human; conditions: for IC50: Homo sapiens, MDA-MB-231, 72 h treatment
Method: as §2, §3
Cell viability was assessed, after 72 h, by sulforhodamine B assay (see Methods).

[4] = 48 h treatment, read-out: IC50 MCF7 48h
[5] = 72 h treatment, read-out: IC50 MCF7

| Structure (SMILES) | Ki [1] [nM] | Ki [2] [nM] | Ki [3] [nM] | IC50 (MCF7 cells; [4]) [µM] | IC50 (MCF7 cells; [5]) [µM] | IC50 (SKBR3 cells) [µM] | IC50 (MDA-MB231 cells) [µM] | reduction of MCF7 cell viability (MCF7 cells; 50 μM, 72 h) | reduction of SKBR3 cell viability (SKBR3 cells; 50 μM, 72 h) | Ki ([3]; rat brain cortex) [nM] | inhibition of MDA-MB231 cell growth (MDA-MB231 cells; 100 μM, 72 h) |
| --- | --- | --- | --- | --- | --- | --- | --- | --- | --- | --- | --- |
| O=C(NCCN1CCN(c2cccc(C(F)(F)F)c2)CC1)c1ccccn1 [SER167] | 1320 ± 12 | 48.5 ± 2.7 | 140 ± 2.5 | 151 ± 41.6 | 54.2 ± 10 | 152 ± 21.6 | 223 ± 154 | – | – | – | – |
| O=C(NCCCN1CCN(C(c2ccc(F)cc2)c2ccc(F)cc2)CC1)c1ccccn1 [SER198] | 52.7 ± 2.7 | 77.8 ± 2.1 | 117 ± 6.1 | 106 ± 18.4 | 10.2 ± 2.5 | 67.7 ± 8.02 | 91.3 ± 18.6 | ≈ 70% | ≈ 50% | – | – |
| O=C(NCCN1CCN(C(c2ccc(F)cc2)c2ccc(F)cc2)CC1)c1ccccn1 [SER177] | – | 218 ± 9.3 | – | 253 ± 65.6 | 66.6 ± 16.2 | 43.3 ± 11.1 | 198 ± 66.7 | – | – | 0.8 ± 0.05 | – |
| O=C(c1ccco1)N1CCN(CC(O)CON2C(=O)C3C4C=CC(C4)C3C2=O)CC1 (stereo not shown) [SER31, 4-[3-[4-(2-furoyl)piperazin-1-yl]propoxy-2-ol]-4-aza-tricyclo [5.2.1.02,6]dec-8-ene-3,5-dione] | 1050 ± 0.231 | > 10000 | – | 336 ± 153 | 99.2 ± 33 | 100 ± 30.8 | 136 ± 38.6 | – | – | 5.04 ± 0.227 | able to inhibit |
| O=C(NCCCN1CCN(C(=O)c2ccco2)CC1)c1ccccn1 [SER196] | – | 1.68 ± 0.4 | – | 206 ± 50.7 | 124 ± 31 | 202 ± 31.2 | 306 ± 65.8 | – | – | – | – |
| O=C(NCCCN1CCN(Cc2ccc3c(c2)OCO3)CC1)c1ccccn1 [SER195] | – | 45.3 ± 5.7 | – | 156 ± 36.1 | 53.3 ± 8.29 | 150 ± 26 | 322 ± 118 | – | – | – | – |
